What was measured:
[1] = Determination of the maximum tolerated dose (MTD); settings: mouse, in vivo, ip; B6D2F1/Jico mice, single intraperitoneal administration, survival over 14 days, doses 2.5 to 160 mg/kg; read-out: DMT (mg/kg) (Maximum Tolerated Doses)
Procedure: (§1) 2—Determination of the Maximum Tolerated Dose (MTD)
(§2) The evaluation of the maximum tolerated dose was carried out on B6D2F1/Jico mice aged from 4 to 6 weeks. The compounds were administered intraperitoneally at increasing doses ranging from 2.5 to 160 mg/kg. The value of the MTD (expressed in mg/kg) is determined from the observation of the survival rates of the animals over a period of 14 days after a single administration of the product under consideration. The change in the weight of the animals is also monitored over this period. When that the value of the MTD is greater than 160 mg/kg, the value of the MTD is categorized as 160 mg/kg by default.

HI-MXT tumours = test: In vivo antitumour activity, hormone-insensitive mouse mammary carcinoma MXT (HI-MXT), tumour growth; settings: 5 mg/kg intraperitoneally; for Tumour area (expressed as %): decrease (−) or increase (+) in HI-MXT tumour area vs control on the 21st day after grafting, 6 administrations
Procedure: The tests were carried out on models of:
hormone-insensitive mouse mammary carcinoma MXT (HI-MXT),
The model of mouse mammary adenocarcinoma MXT of Watson C. et al. (Cancer Res., 1977; […]: 3344-48), grafted onto B6D2F1/Jico mice aged from 4 to 6 weeks, is derived from the mammary gland milk ducts. Initially hormone-sensitive (HS-MXT model), the differentiated tumour develops in the direction of an undifferentiated hormone-insensitive tumour (HI-MXT model). […] This is the case, for example, with cyclophosphamide, etoposide or adriamycin.
(§3) When the MTD value of a product was determined, its in vivo antitumour activity was characterized at the MTD/2, MTD/4 and MTD/8 doses on the models of mammary adenocarcinoma of mouse origin HS-MXT and of mouse mammary carcinoma HI-MXT and on the model of subcutaneous lymphoma L 1210.
(§4) In all the examples presented below, whatever the model, the control condition is represented by a batch of 9 or 15 mice to which is administered, for 3 consecutive weeks and at the rate of 3 administrations (Monday, Wednesday and Friday) per week, a volume of 0.2 ml of physiological saline comprising the solvent used to dissolve the various compounds of formula (I) and (Ia) used.
i)—The tumour growth was evaluated by measuring twice weekly (Monday and Friday) the area of the grafted HS-MXT, HI-MXT or L 1210 tumours. This area is calculated by multiplying the value of the two greatest perpendicular axes of the tumour. The value of these axes is measured using a sliding caliper.
The influence of the two products CRL 8293 and CRL 8294 on the growth of HI-MXT tumours will be presented below by way of example. Each batch of mice grafted with HI-MXT tumours relating to a given experimental condition comprises 15 animals.
The product CRL 8293 is administered intraperitoneally. The first injection of the product is carried out on the seventh day postgrafting (D7) at the rate of 3 injections per week (Monday, Wednesday and Friday) for 3 consecutive weeks and at a dose of 5 mg/kg.
The product CRL 8294 is administered intraperitoneally. The first injection of the product is carried out on the seventh day postgrafting (D7) at the rate of 3 injections per week (Monday, Wednesday and Friday) for 3 consecutive weeks and at a dose of 5 mg/kg.
The decreases (−) or the increases (+) in the area of the HI-MXT tumours induced with treatments 1 and 2 with respect to the control condition on the 21st day after the tumour grafting, i.e. after 6 administrations of the product CRL 8293 or of the product CRL 8294, are shown, as percentage, in the following Table II. 100% of the control animals are still alive on the 21st day postgrafting.

lymphoma L 1210 = test: In vivo antitumour activity, subcutaneous lymphoma L 1210, survival (T/C); design: species or system mouse
Procedure: The model of lymophoma L 1210 is a model of L 1210 leukemia cells of mouse origin grafted subcutaneously in the mouse. They give rise, in 100% of cases, to a rapid-growth subcutaneous solid tumour (L 1210 s.c.).
as §3, §4
ii)—The survival rate of the mice is calculated in the form or a ratio T/C, where: [formula]
This ratio represents the mean survival time of the […] of the batch of treated mice with respect to the mean survival time of the median mouse of the batch of control mice. Thus, a molecule induces a significant (P<0.05) increase in the survival of the animals when the T/C index exceeds 130%. On the other hand, it has a toxic effect when this T/C value is less than 70%. […]

B6D2F1/Jico mice = test: Determination of the maximum tolerated dose (MTD); settings: mouse, in vivo, ip
Procedure: as §1, §2

SMILES	MTD at 14 days [1] [mg/kg]	growth of the HI-MXT tumours (in words) (HI-MXT tumours)	Tumour area (expressed as %) (HI-MXT tumours) [%]	mean survival time of the median mouse (in words) (lymphoma L 1210; subcutaneous lymphoma L 1210, vs control mice)	T/C (expressed a %) (lymphoma L 1210; survival ratio treated/control, L 1210 s.c., 1.25 mg/kg intraperitoneally, 3 injections per week for 3 weeks from D7) [%]	DMT (mg/kg) (Maximum Tolerated Doses) (B6D2F1/Jico mice)
O=C1c2cccnc2-c2nccc3ccnc1c23 [CRL 8293, 7H-Pyrido[4,3,2-de][1,10]phenanthroline-7-one]	10	significant decrease	−33	–	–	–
O=C1c2ncccc2-c2nccc3ccnc1c23 [CRL 8294, 7H-Pyrido[4,3,2-de][1,7phenanthroline-7-one]	–	significant decrease	−36	significant extension	136	10

From patent publication US6809096B1, “Phenanthroline-7-one derivatives and their therapeutic uses” (Laboratoire L. Lafon, priority 1999, dated 2004)
